According to paper PMC6463685, “WS-5 Extract of Curcuma longa, Chaenomeles sinensis, and Zingiber officinale Contains Anti-AChE Compounds and Improves β-Amyloid-Induced Memory Impairment in Mice” (Evidence-based Complementary and Alternative Medicine : eCAM, 2019):

Target: T1, acetylcholinesterase (AChE)
T1 construct: AChE used with commercial BioVision colorimetric AChE assay kit
Experiment: colorimetric AChE kit (choline oxidase/probe), […] nm
Format: biochemical
Settings: 37°C, 20 min, AChE substrate 5 mM

Row | SMILES | IC50 (also printed as 17.92 μg/ml) [µM] | IC50 (also printed as 10.42 μg/ml) [µM]
1 | CCCCC/C=C/C(=O)CCc1ccc(O)c(OC)c1 [6-Shogaol] | 64.8 | –
2 | O=C(O)c1ccc(O)c(O)c1 [Protocatechuic acid] | – | 67.6
